# Measured values from ChEMBL document CHEMBL3885881, “DrugMatrix”.
# Species: Rattus norvegicus
# Experiment: DrugMatrix - Regimen: Daily Repeat
# Assay type: toxicity, organism-based, Sprague-Dawley
# Parameters: regimen Daily Repeat, gender Male, age 6-8 weeks
# Conditions: in vivo, po, route oral GAVAGE, vehicle 100 % WATER; for ABSOLUTE BASOPHIL / ABSOLUTE EOSINOPHIL / ABSOLUTE LYMPHOCYTE / ABSOLUTE MONOCYTE / ABSOLUTE SEGMENTED NEUTROPHIL / BASOPHIL / EOSINOPHIL / ERYTHROCYTE COUNT / HEMATOCRIT / HEMOGLOBIN / LEUKOCYTE COUNT / LYMPHOCYTE / MEAN CORPUSCULAR HEMOGLOBIN / MEAN CORPUSCULAR HEMOGLOBIN CONCENTRATION / MEAN CORPUSCULAR VOLUME / MONOCYTE / NEUTROPHIL / NUCLEATED RED BLOOD CELLS / PLATELET COUNT: tissue Blood; for ALANINE AMINOTRANSFERASE / ALBUMIN / ALKALINE PHOSPHATASE / ASPARTATE AMINOTRANSFERASE / BLOOD UREA NITROGEN / CARBON DIOXIDE / CHLORIDE / CHOLESTEROL / CREATINE PHOSPHOKINASE / CREATININE / GLUCOSE / LACTATE DEHYDROGENASE / LIPASE / PHOSPHORUS / POTASSIUM / SODIUM / TOTAL BILIRUBIN / TOTAL PROTEIN / URIC ACID: tissue Plasma
# [1] = 5 mg/kg, 120 h, dose level Low, time 5 day
# [2] = 15 mg/kg, 72 h, dose level High, time 3 day
# [3] = 15 mg/kg, 120 h, dose level High, time 5 day
compound,measurement,setting,value
C[N+](C)(C)CCOC(N)=O.[Cl-] [CARBACHOL],ABSOLUTE BASOPHIL,[1],0 CELLS/uL
same,ABSOLUTE EOSINOPHIL,[1],0 CELLS/uL
same,ABSOLUTE LYMPHOCYTE,[1],11606.67 CELLS/uL
same,ABSOLUTE MONOCYTE,[1],117 CELLS/uL
same,ABSOLUTE SEGMENTED NEUTROPHIL,[1],1076.33 CELLS/uL
same,BASOPHIL,[1],0%
same,EOSINOPHIL,[1],0%
same,ERYTHROCYTE COUNT,[1],5.68 x10E6/uL
same,HEMATOCRIT,[1],35.2%
same,HEMOGLOBIN,[1],13.47 G/DL
same,LEUKOCYTE COUNT,[1],12.8 x10E3/uL
same,LYMPHOCYTE,[1],90.33%
same,MEAN CORPUSCULAR HEMOGLOBIN,[1],23.7 pg
same,MEAN CORPUSCULAR HEMOGLOBIN CONCENTRATION,[1],38.27 G/DL
same,MEAN CORPUSCULAR VOLUME,[1],62 fL
same,MONOCYTE,[1],1%
same,NEUTROPHIL,[1],8.67%
same,NUCLEATED RED BLOOD CELLS,[1],0 /100WBC
same,PLATELET COUNT,[1],1163.67 x10E3/uL
same,ALANINE AMINOTRANSFERASE,[1],62.33 u/L
same,ALBUMIN,[1],3.97 G/DL
same,ALKALINE PHOSPHATASE,[1],368 u/L
same,ASPARTATE AMINOTRANSFERASE,[1],96.33 u/L
same,BLOOD UREA NITROGEN,[1],14.67 mg/dL
same,CARBON DIOXIDE,[1],33.33 mmol/L
same,CHLORIDE,[1],99.33 MEQ/L
same,CHOLESTEROL,[1],68.33 mg/dL
same,CREATINE PHOSPHOKINASE,[1],498.67 u/L
same,CREATININE,[1],0.15 mg/dL
same,GLUCOSE,[1],136.67 mg/dL
same,LACTATE DEHYDROGENASE,[1],139.33 u/L
same,LIPASE,[1],8.67 u/L
same,PHOSPHORUS,[1],10.83 mg/dL
same,POTASSIUM,[1],5.88 MEQ/L
same,SODIUM,[1],143.33 MEQ/L
same,TOTAL BILIRUBIN,[1],0.2 mg/dL
same,TOTAL PROTEIN,[1],5.77 G/DL
same,URIC ACID,[1],0.63 mg/dL
same,ABSOLUTE BASOPHIL,[2],0 CELLS/uL
same,ABSOLUTE EOSINOPHIL,[2],0 CELLS/uL
same,ABSOLUTE LYMPHOCYTE,[2],9349.33 CELLS/uL
same,ABSOLUTE MONOCYTE,[2],72.33 CELLS/uL
same,ABSOLUTE SEGMENTED NEUTROPHIL,[2],311.67 CELLS/uL
same,BASOPHIL,[2],0%
same,EOSINOPHIL,[2],0%
same,ERYTHROCYTE COUNT,[2],5.27 x10E6/uL
same,HEMATOCRIT,[2],33.67%
same,HEMOGLOBIN,[2],12.87 G/DL
same,LEUKOCYTE COUNT,[2],9.73 x10E3/uL
same,LYMPHOCYTE,[2],95.67%
same,MEAN CORPUSCULAR HEMOGLOBIN,[2],24.4 pg
same,MEAN CORPUSCULAR HEMOGLOBIN CONCENTRATION,[2],38.23 G/DL
same,MEAN CORPUSCULAR VOLUME,[2],63.83 fL
same,MONOCYTE,[2],0.67%
same,NEUTROPHIL,[2],3.67%
same,NUCLEATED RED BLOOD CELLS,[2],0 /100WBC
same,PLATELET COUNT,[2],1174 x10E3/uL
same,ALANINE AMINOTRANSFERASE,[2],42.33 u/L
same,ALBUMIN,[2],3.9 G/DL
same,ALKALINE PHOSPHATASE,[2],336.33 u/L
same,ASPARTATE AMINOTRANSFERASE,[2],77 u/L
same,BLOOD UREA NITROGEN,[2],11.33 mg/dL
same,CARBON DIOXIDE,[2],34 mmol/L
same,CHLORIDE,[2],101 MEQ/L
same,CHOLESTEROL,[2],72 mg/dL
same,CREATINE PHOSPHOKINASE,[2],402.67 u/L
same,CREATININE,[2],0.11 mg/dL
same,GLUCOSE,[2],134.67 mg/dL
same,LACTATE DEHYDROGENASE,[2],129.33 u/L
same,LIPASE,[2],9 u/L
same,PHOSPHORUS,[2],11.9 mg/dL
same,POTASSIUM,[2],5.89 MEQ/L
same,SODIUM,[2],146.47 MEQ/L
same,TOTAL BILIRUBIN,[2],0.13 mg/dL
same,TOTAL PROTEIN,[2],5.67 G/DL
same,URIC ACID,[2],0.5 mg/dL
same,ABSOLUTE BASOPHIL,[3],0 CELLS/uL
same,ABSOLUTE EOSINOPHIL,[3],48 CELLS/uL
same,ABSOLUTE LYMPHOCYTE,[3],6680.67 CELLS/uL
same,ABSOLUTE MONOCYTE,[3],148.67 CELLS/uL
same,ABSOLUTE SEGMENTED NEUTROPHIL,[3],722.67 CELLS/uL
same,BASOPHIL,[3],0%
same,EOSINOPHIL,[3],0.67%
same,ERYTHROCYTE COUNT,[3],5.28 x10E6/uL
same,HEMATOCRIT,[3],33.7%
same,HEMOGLOBIN,[3],13.03 G/DL
same,LEUKOCYTE COUNT,[3],7.6 x10E3/uL
same,LYMPHOCYTE,[3],87.67%
same,MEAN CORPUSCULAR HEMOGLOBIN,[3],24.73 pg
same,MEAN CORPUSCULAR HEMOGLOBIN CONCENTRATION,[3],38.7 G/DL
same,MEAN CORPUSCULAR VOLUME,[3],63.97 fL
same,MONOCYTE,[3],2%
same,NEUTROPHIL,[3],9.67%
same,NUCLEATED RED BLOOD CELLS,[3],0 /100WBC
same,PLATELET COUNT,[3],1083.67 x10E3/uL
same,ALANINE AMINOTRANSFERASE,[3],53 u/L
same,ALBUMIN,[3],3.73 G/DL
same,ALKALINE PHOSPHATASE,[3],301 u/L
same,ASPARTATE AMINOTRANSFERASE,[3],93 u/L
same,BLOOD UREA NITROGEN,[3],15.67 mg/dL
same,CARBON DIOXIDE,[3],30.67 mmol/L
same,CHLORIDE,[3],101.67 MEQ/L
same,CHOLESTEROL,[3],64 mg/dL
same,CREATINE PHOSPHOKINASE,[3],243.33 u/L
same,CREATININE,[3],0.18 mg/dL
same,GLUCOSE,[3],145.67 mg/dL
same,LACTATE DEHYDROGENASE,[3],116.33 u/L
same,LIPASE,[3],11 u/L
same,PHOSPHORUS,[3],10.67 mg/dL
same,POTASSIUM,[3],5.44 MEQ/L
same,SODIUM,[3],146.13 MEQ/L
same,TOTAL BILIRUBIN,[3],0.1 mg/dL
same,TOTAL PROTEIN,[3],5.47 G/DL
same,URIC ACID,[3],0.57 mg/dL
